Reference: patent US7750036B2 (SB Pharmco Puerto Rico Inc., priority 2004, dated 2010)
Values after ≈ are worked out from the molar mass of the structure shown. Read-outs that look alike come from different tables or passages of the source.

Assays:
[1] = cited from earlier work
physchem = conditions: pH 7.1, aqueous buffer

Structure (SMILES)	solubility of salt generated in situ ([1]; acidic medium which simulates gastric fluid)	solubility (physchem) [µg/mL]	solubility ([1]; above a pH of 9.0) [µg/mL]	saturation solubility ([1]; pH=5, room temperature)	saturation solubility ([1]; pH=7, room temperature)
COc1ccccc1OCCNCC(O)COc1cccc2[nH]c3ccccc3c12.Cl (centres unmarked) [hydrochloride salt of carvedilol]	less soluble	–	–	–	–
COc1ccccc1OCCNCC(O)COc1cccc2[nH]c3ccccc3c12 (racemic) [Carvedilol]	–	20 to 30 (≈ 49.2 to 73.8 µM)	< 1	about 100 μg/mL	about 23 μg/mL
